Experimental data as given in the NIST ThermoML archive (doi:10.1021/acs.jced.9b00442).
Numbers after ± are expanded uncertainties.

Conditions: 296.15 K; 100 kPa; Liquid; Vibrating tube method
Work on `CC[N+](C)(C)CCOC.O=S(=O)([N-]S(=O)(=O)C(F)(F)F)C(F)(F)F` yielded a mass density of 1432.8 ± 1.1 kg/m3. With `CC[N+](C)(C)CCCO.O=S(=O)([N-]S(=O)(=O)C(F)(F)F)C(F)(F)F` the mass density was 1465.2 ± 1.2 kg/m3. Compound `CCCC[N+](C)(C)CC.O=S(=O)([N-]S(=O)(=O)C(F)(F)F)C(F)(F)F` has a mass density of 1373.4 ± 1.1 kg/m3.

Same assay, conditions: 297.15 K; 100 kPa; Liquid; Vibrating tube method
Work on `CC[N+](C)(C)CCOC.O=S(=O)([N-]S(=O)(=O)C(F)(F)F)C(F)(F)F` yielded a mass density of 1431.9 ± 1.1 kg/m3. `CC[N+](C)(C)CCCO.O=S(=O)([N-]S(=O)(=O)C(F)(F)F)C(F)(F)F` showed a mass density of 1464.3 ± 1.2 kg/m3. With `CCCC[N+](C)(C)CC.O=S(=O)([N-]S(=O)(=O)C(F)(F)F)C(F)(F)F` the mass density was 1372.5 ± 1.1 kg/m3.

Same assay, conditions: 298.15 K; 100 kPa; Liquid; Concentric cylinders viscometry
In the case of `CC[N+](C)(C)CCOC.O=S(=O)([N-]S(=O)(=O)C(F)(F)F)C(F)(F)F`, the viscosity is reported as 61.5 ± 2.5 mPa·s. In the case of `CC[N+](C)(C)CCCO.O=S(=O)([N-]S(=O)(=O)C(F)(F)F)C(F)(F)F`, the viscosity is reported as 166 ± 7.1 mPa·s. `CCCC[N+](C)(C)CC.O=S(=O)([N-]S(=O)(=O)C(F)(F)F)C(F)(F)F` gave a viscosity of 100.5 ± 4.2 mPa·s.

Same assay, conditions: 298.15 K; 100 kPa; Liquid; Frequency=0.0006 MHz; Alternating current cell with electrodes
With `CC[N+](C)(C)CCOC.O=S(=O)([N-]S(=O)(=O)C(F)(F)F)C(F)(F)F` the electrical conductivity was 0.285 ± 0.006 S/m. Work on `CC[N+](C)(C)CCCO.O=S(=O)([N-]S(=O)(=O)C(F)(F)F)C(F)(F)F` yielded an electrical conductivity of 0.125 ± 0.003 S/m. Work on `CCCC[N+](C)(C)CC.O=S(=O)([N-]S(=O)(=O)C(F)(F)F)C(F)(F)F` yielded an electrical conductivity of 0.182 ± 0.004 S/m.

Same assay, conditions: 298.15 K; 100 kPa; Liquid; Vibrating tube method
Compound `CC[N+](C)(C)CCOC.O=S(=O)([N-]S(=O)(=O)C(F)(F)F)C(F)(F)F` has a mass density of 1431 ± 1.1 kg/m3. In the case of `CC[N+](C)(C)CCCO.O=S(=O)([N-]S(=O)(=O)C(F)(F)F)C(F)(F)F`, the mass density is reported as 1463.4 ± 1.2 kg/m3. `CCCC[N+](C)(C)CC.O=S(=O)([N-]S(=O)(=O)C(F)(F)F)C(F)(F)F` showed a mass density of 1371.6 ± 1.1 kg/m3.

Same assay, conditions: 299.16 K; 100 kPa; Liquid; Vibrating tube method
With `CC[N+](C)(C)CCOC.O=S(=O)([N-]S(=O)(=O)C(F)(F)F)C(F)(F)F` the mass density was 1430 ± 1.1 kg/m3. `CC[N+](C)(C)CCCO.O=S(=O)([N-]S(=O)(=O)C(F)(F)F)C(F)(F)F` gave a mass density of 1462.5 ± 1.2 kg/m3. `CCCC[N+](C)(C)CC.O=S(=O)([N-]S(=O)(=O)C(F)(F)F)C(F)(F)F` gave a mass density of 1370.8 ± 1.1 kg/m3.

Same assay, conditions: 300.16 K; 100 kPa; Liquid; Vibrating tube method
For `CC[N+](C)(C)CCOC.O=S(=O)([N-]S(=O)(=O)C(F)(F)F)C(F)(F)F`, the mass density was 1429.1 ± 1.1 kg/m3. For `CC[N+](C)(C)CCCO.O=S(=O)([N-]S(=O)(=O)C(F)(F)F)C(F)(F)F`, the mass density was 1461.7 ± 1.2 kg/m3. `CCCC[N+](C)(C)CC.O=S(=O)([N-]S(=O)(=O)C(F)(F)F)C(F)(F)F` gave a mass density of 1369.9 ± 1.1 kg/m3.

Same assay, conditions: 301.15 K; 100 kPa; Liquid; Vibrating tube method
Compound `CC[N+](C)(C)CCOC.O=S(=O)([N-]S(=O)(=O)C(F)(F)F)C(F)(F)F` has a mass density of 1428.1 ± 1.1 kg/m3. `CC[N+](C)(C)CCCO.O=S(=O)([N-]S(=O)(=O)C(F)(F)F)C(F)(F)F` gave a mass density of 1460.8 ± 1.2 kg/m3. Compound `CCCC[N+](C)(C)CC.O=S(=O)([N-]S(=O)(=O)C(F)(F)F)C(F)(F)F` has a mass density of 1369 ± 1.1 kg/m3.

Same assay, conditions: 302.15 K; 100 kPa; Liquid; Vibrating tube method
In the case of `CC[N+](C)(C)CCOC.O=S(=O)([N-]S(=O)(=O)C(F)(F)F)C(F)(F)F`, the mass density is reported as 1427.2 ± 1.1 kg/m3. With `CC[N+](C)(C)CCCO.O=S(=O)([N-]S(=O)(=O)C(F)(F)F)C(F)(F)F` the mass density was 1459.9 ± 1.2 kg/m3. Work on `CCCC[N+](C)(C)CC.O=S(=O)([N-]S(=O)(=O)C(F)(F)F)C(F)(F)F` yielded a mass density of 1368.1 ± 1.1 kg/m3.

Same assay, conditions: 303.15 K; 100 kPa; Liquid; Concentric cylinders viscometry
Work on `CC[N+](C)(C)CCOC.O=S(=O)([N-]S(=O)(=O)C(F)(F)F)C(F)(F)F` yielded a viscosity of 49.5 ± 2 mPa·s. In the case of `CC[N+](C)(C)CCCO.O=S(=O)([N-]S(=O)(=O)C(F)(F)F)C(F)(F)F`, the viscosity is reported as 125.4 ± 5.3 mPa·s. `CCCC[N+](C)(C)CC.O=S(=O)([N-]S(=O)(=O)C(F)(F)F)C(F)(F)F` gave a viscosity of 78.4 ± 3.2 mPa·s.

Same assay, conditions: 303.15 K; 100 kPa; Liquid; Frequency=0.0006 MHz; Alternating current cell with electrodes
Compound `CC[N+](C)(C)CCOC.O=S(=O)([N-]S(=O)(=O)C(F)(F)F)C(F)(F)F` has an electrical conductivity of 0.347 ± 0.007 S/m. For `CC[N+](C)(C)CCCO.O=S(=O)([N-]S(=O)(=O)C(F)(F)F)C(F)(F)F`, the electrical conductivity was 0.162 ± 0.003 S/m. `CCCC[N+](C)(C)CC.O=S(=O)([N-]S(=O)(=O)C(F)(F)F)C(F)(F)F` gave an electrical conductivity of 0.228 ± 0.005 S/m.

Same assay, conditions: 303.15 K; 100 kPa; Liquid; Vibrating tube method
Compound `CC[N+](C)(C)CCOC.O=S(=O)([N-]S(=O)(=O)C(F)(F)F)C(F)(F)F` has a mass density of 1426.2 ± 1.1 kg/m3. `CC[N+](C)(C)CCCO.O=S(=O)([N-]S(=O)(=O)C(F)(F)F)C(F)(F)F` gave a mass density of 1459 ± 1.2 kg/m3. With `CCCC[N+](C)(C)CC.O=S(=O)([N-]S(=O)(=O)C(F)(F)F)C(F)(F)F` the mass density was 1367.2 ± 1.1 kg/m3.

Same assay, conditions: 304.15 K; 100 kPa; Liquid; Vibrating tube method
`CC[N+](C)(C)CCOC.O=S(=O)([N-]S(=O)(=O)C(F)(F)F)C(F)(F)F` showed a mass density of 1425.3 ± 1.1 kg/m3. In the case of `CC[N+](C)(C)CCCO.O=S(=O)([N-]S(=O)(=O)C(F)(F)F)C(F)(F)F`, the mass density is reported as 1458.2 ± 1.2 kg/m3. Compound `CCCC[N+](C)(C)CC.O=S(=O)([N-]S(=O)(=O)C(F)(F)F)C(F)(F)F` has a mass density of 1366.3 ± 1.1 kg/m3.

Same assay, conditions: 305.15 K; 100 kPa; Liquid; Vibrating tube method
Compound `CC[N+](C)(C)CCOC.O=S(=O)([N-]S(=O)(=O)C(F)(F)F)C(F)(F)F` has a mass density of 1424.4 ± 1.1 kg/m3. `CC[N+](C)(C)CCCO.O=S(=O)([N-]S(=O)(=O)C(F)(F)F)C(F)(F)F` gave a mass density of 1457.3 ± 1.2 kg/m3. `CCCC[N+](C)(C)CC.O=S(=O)([N-]S(=O)(=O)C(F)(F)F)C(F)(F)F` gave a mass density of 1365.4 ± 1.1 kg/m3.

Same assay, conditions: 306.15 K; 100 kPa; Liquid; Vibrating tube method
`CC[N+](C)(C)CCOC.O=S(=O)([N-]S(=O)(=O)C(F)(F)F)C(F)(F)F` showed a mass density of 1423.4 ± 1.1 kg/m3. `CC[N+](C)(C)CCCO.O=S(=O)([N-]S(=O)(=O)C(F)(F)F)C(F)(F)F` gave a mass density of 1456.4 ± 1.2 kg/m3.
